This passage reports IC50, Kd and inhibition results from ChEMBL document CHEMBL4715844, “Structure-based virtual screening and biological evaluation of novel non-bisphosphonate farnesyl pyrophosphate synthase inhibitors” (Eur J Med Chem, 2020).

pIC50, pKd: −log10 of the molar value. Bounds are passed on as bounds.

Experiment [1] concerns HCT-116. Briefly: Cytotoxicity against FPPS-positive human HCT116 cells assessed as reduction in cell viability measured after 48 hrs by MTT assay. Conditions: HCT-116, 48 h. (Formazan colour is commonly taken as a measure of viable cells.)
Experiment [2] relates to MDA-MB-231. Briefly: Cytotoxicity against FPPS-negative human MDA-MB-231 cells assessed as reduction in cell viability measured after 48 hrs by MTT assay. The format is functional, cell-based. Conditions: MDA-MB-231, 48 h.
In experiment [3] the test system is LoVo. Briefly: Cytotoxicity against FPPS-positive human Lovo cells assessed as reduction in cell viability measured after 48 hrs by MTT assay.
For experiment [4], the target named is T1, Farnesyl pyrophosphate synthase (Rattus norvegicus, UniProt P05369).
T1 sequence (P05369 whole entry): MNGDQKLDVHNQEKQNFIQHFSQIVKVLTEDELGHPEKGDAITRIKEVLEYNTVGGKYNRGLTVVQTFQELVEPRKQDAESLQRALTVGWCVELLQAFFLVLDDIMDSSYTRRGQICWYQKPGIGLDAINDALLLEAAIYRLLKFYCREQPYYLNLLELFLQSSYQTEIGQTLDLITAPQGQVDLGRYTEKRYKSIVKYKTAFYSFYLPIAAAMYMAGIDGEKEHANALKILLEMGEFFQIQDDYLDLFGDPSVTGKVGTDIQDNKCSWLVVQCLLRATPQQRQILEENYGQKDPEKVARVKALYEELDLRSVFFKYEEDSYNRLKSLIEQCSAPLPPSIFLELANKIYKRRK
Briefly: Binding affinity to rat FPPS expressed in Escherichia coli BL21 (DE3) by isothermal titration calorimetry. For orientation: ITC needs no label: the signal is the heat of the interaction.

Experiment [5] deals with T2, Farnesyl pyrophosphate synthase (Rattus norvegicus) (UniProt P05369).
T2 sequence (whole entry): T1 sequence (P05369 whole entry)
Briefly: Inhibition of rat FPPS expressed in Escherichia coli BL21 (DE3) using GPP and IPP as substrate at 10 uM incubated for 10 mins by microplate reader.

For `O=P(O)(O)C(O)(Cn1ccnc1)P(=O)(O)O` [ZOLEDRONIC ACID], the negative-log IC50 (pIC50) in experiment [1] was 4.21; in experiment [2], under 4.00; in experiment [3], 4.46.

Consider `CNS(=O)(=O)c1cn(CC(=O)Nc2cc(C)cc(C)c2)cc1S(=O)(=O)NC`, for which the pKd in experiment [4] was 3.35. For the same compound, in experiment [5], the inhibition came out at 23.4%.

Consider `O=C(CC1(O)C(=O)Nc2ccccc21)CC1(O)C(=O)Nc2ccccc21` (stereo unspecified), for which the pKd in experiment [4] is 3.74. In experiment [5], this compound gave an inhibition of 13%.

`CC(C)Oc1ccc(CNC(=O)C2CCCN(S(=O)(=O)N3CCOCC3)C2)cc1` (stereo unspecified): in experiment [4], the pKd was 4.14. Also, the inhibition in experiment [5] worked out at 28.9%.

As to `O=c1oc2cc(O[C@@H]3O[C@H](CO)[C@@H](O)[C@H](O)[C@H]3O)ccc2c2ccccc12`, the pKd in experiment [4] is 3.97. Besides, in experiment [5], the inhibition is 11.5%.

In general, pIC50 refers to the negative decadic logarithm of the IC50, by convention in mol/L. In general, pKd refers to the negative decadic logarithm of the Kd, by convention in mol/L. A higher pKd goes with a small Kd. A word on the inhibition: it is the change of the read-out against control, counted positive when it falls. Read a high inhibition as strong suppression.
